Experimental data from patent US20040038369A1, “Airway-specific trypsin-like enzymes and method of using the same” (priority 2000, published 2004).

Legend:
[1] = test system: HB-EGF on surface of H292 cell membrane; experiment: Surface antigen analysis (FACS) of HB-EGF on NCI-H292 cell membrane; assay type: cell-based, human; details: HAST 300 mU/mL + inhibitor (leupeptin 10 μM, BB1101 5 μM); PBS 8.61, HAST alone 6.26
Description: (§1) NCI-H292 cells (purchased from ATCC) were cultured on a 10 cm dish in 10% FCS-containing RPMI-1640 until to reach a confluent state, subjected to the replacement of the culture medium by RPMI-1640 containing 0.1% of BSA, and further cultured for 24 hours. The cultured cells were washed with PBS, treated and floated in PBS containing 5 mM of EDTA at 37° C. for five minutes, and then suspended in 0.1%BSA-containing RPMI-1640 in a density of 1.0×10^7 cells/mL.
(§2) The above-described cell suspension and 0.1% BSA-containing RPMI-1640 containing HAST in a double concentration (600 mU/mL) were mixed with each other in equivalent amounts, respectively, and reacted with each other at 37° C. for 30 minutes (final cell concentration: 5.0×10^6 cells/mL, final HAST concentration: 300 mU/mL). The reaction solution was mixed with ice-cooled 1% FCS-containing PBS in a volume of 5 times that of the reaction solution to stop the reaction, and the treated solution was then supplied for a surface antigen analysis.
(§3) The cells subjected to the prescribed treatments were suspended in 1% FCS-containing PBS in a density of 1.0×10^7 cells/mL. 100 μL of the prepared cell suspension was mixed with a primary antigen (EGF back ground dyeing: 1 μg of normal mouse IgG1 (produced by R & D Corp.), EGF dyeing: 1 μg of an anti-EGF mouse monoclonal antibody (produced by R & D Corp.), HB-EGF back ground dyeing: free from the primary antigen, HB-EGF dyeing: 2 μg of an anti-HB-EGF goat polyclonal antibody (produced by R & D Corp.)) and reacted on ice for 30 minutes. The reaction product was once washed with 5 mL of 1% FCS-containing PBS, mixed with 2 μg of a secondary antigen (EGF back ground dyeing and EGF dyeing: FITC conjugated F(ab′)2 fragment to mouse IgG (produced by Dako Corp.), HB-EGF back ground dyeing and HB-EGF dyeing: Swine Anti-Goat Ig's Fluorescein Conjugate (produced by KPL Corp.)), and then reacted on ice for 30 minutes. The reaction solution was once washed with 5 mL of 1% FCS-containing PBS, and then mixed with Cell Fix (produced by Becton Dickinson Corp.) to immobilize the cells. The expression of the surface antigen was assayed with FACS Calibur (produced by Becton Dickinson Corp.) and analyzed with Cell Quest (produced by Becton Dickinson Corp.). Average fluorescence intensities were shown in the next table as the indicators of expression intensities.
(§4) HAST (600 mU/mL) was reacted with leupeptin (10 μM) or BB1101 (5 μM) in 0.1% BSA-containing RPMI-1640 on ice for 30 minutes, and the reaction solution was mixed with the equivalent amount of a cell suspension preliminarily treated with leupeptin (10 μM) or BB1101 (5 μM) at 37° C. for 30 minutes, and further treated at 37° C. for 30 minutes (final HAST concentration: 300 mU/mL, final leupeptin concentration: 10 μM, final BB1101 concentration: 5 μM, final cell concentration: 5.0×10^6 cells/mL). The reaction solution was mixed with ice-cooled 1% FCS-containing PBS in an amount of five times that of the reaction solution to stop the reaction, and then supplied for the surface antigen analysis.
(§5) The cells subjected to the prescribed treatments were suspended in 1% FCS-containing PBS in a density of 1.0×10^7 cells/mL. […]

[2] = test system: EGF on surface of H292 cell membrane; experiment: Surface antigen analysis (FACS) of EGF on NCI-H292 cell membrane; assay type: cell-based, human; details: HAST 300 mU/mL + inhibitor (leupeptin 10 μM, BB1101 5 μM); PBS 10.79, HAST alone 8.33
Description: as §1, §2, §3, §4, §5

NCI-H292 cells = experiment: AB-PAS staining of mucus glycoprotein in NCI-H292 cells; assay type: cell-based, human; details: FIG. 1 and 2
Description: (§6) NCI-H292 cells (human pulmonary mucoepidermoid tumor cell strain, purchased from ATCC) were suspended in 10% FCS (Fetal Calf Serum)-containing RPMI-1640 (produced by Gibco Corp.), sowed on a Lab-Tek 8 well chamber slide (produced by Nunc Corp.) in a density of 6.0×10^4 cells/cm^2, cultured for 72 hours, subjected to the replacement of the culture solution by RPMI-1640 containing 0.1% of BSA, and further cultured for 24 hours.
On the day of the treatment, the culture solution of each well was replaced by RPMI-1640 (containing 0.1% BSA) containing EGF (5 ng/mL, produced by Becton Dickinson Corp.), HB-EGF (5 ng/mL, produced by R & D Corp.), TGF-α (5 ng/mL, produced by Peprotech Corp.), or PBS to start the treatment. Then, the cells were incubated at 37° C. for 24 hours.
After the prescribed 24 hours treatment, the culture supernatant was removed. The residue was once washed with PBS, mixed with 4% paraformaldehyde/PBS, and then allowed to stand at room temperature for one hour to immobilize the cells. The immobilized cells were twice washed with Milli Q water and then stained with AB-PAS. The staining was carried out according to a book (“All of new dyeing methods” p136-150 (Iyaku Shuppansha)). After staining, the cells were sequentially immersed in 70, 80, and 100% ethanol for five minutes, respectively, to remove water, sealed in an Aquatex (produced by Merck Corp.), and then subjected to the observation of the staining image with an optical microscope. From the results, it was clarified that all of HAST, TGF-α, EGF, and HB-EGF promoted the production of the mucus glycoprotein.
as §6, with “(purchased” for “(human pulmonary mucoepidermoid tumor cell strain, purchased”, “FCS-containing” for “FCS (Fetal Calf Serum)-containing”, “hours. […]” for “hours.”

PAR-2 = target: T1, PAR-2 (Homo sapiens, UniProt P55085); experiment: Calcium influx in PAR-2-expressing insect cells; assay type: cell-based; details: AST 2 units/mL; trypsin, thrombin 0.1 to 10 units/mL; SFLLRNamide, SLIGRL 10 to 100 μM
T1 construct: expressed in transfected cells; host or cells: Sf9 insect cells infected with recombinant baculovirus VL-PAR (pVL1393)
T1 sequence (P55085 26-397): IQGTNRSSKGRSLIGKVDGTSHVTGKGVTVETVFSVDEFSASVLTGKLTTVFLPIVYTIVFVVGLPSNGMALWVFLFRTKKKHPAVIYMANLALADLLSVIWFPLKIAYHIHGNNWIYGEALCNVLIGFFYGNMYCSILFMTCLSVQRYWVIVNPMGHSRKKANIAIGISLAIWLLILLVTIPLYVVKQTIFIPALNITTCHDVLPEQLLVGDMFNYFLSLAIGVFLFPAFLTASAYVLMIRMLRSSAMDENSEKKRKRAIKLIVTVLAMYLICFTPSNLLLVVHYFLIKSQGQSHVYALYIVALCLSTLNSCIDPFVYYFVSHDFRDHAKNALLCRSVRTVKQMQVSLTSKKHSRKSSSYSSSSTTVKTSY
Description: (§7) The above-obtained recombinant baculovirus VL-PAR for expressing the PAR was used to infect 1.0×10^7 Sf9 cells sowed on a 75 cm^2 flask at an MOI=2, and was then left and stationally cultured at 27° C. for 40 hours. After the culture, the infected cells were recovered and then subjected to a calcium influx experiment to-confirm the function of the PAR.
(§8) The recovered infected cells (about 5×10^6 cells) were once washed with HEPES-Tyrode buffer solution-Ca^2+ (−) pH 7.4, and then suspended in 5 mL of HEPES-Tyrode buffer solution (containing Fura2-AM, 1 μg/mL) to load the Fura2-AM on the cells at 27° C. for 30 minutes. The suspension was centrifuged at 800 rpm at room temperature for 5 minutes to recover the cells. The cells were twice washed with HEPES-Tyrode buffer solution-Ca^2+ (−) pH 7.4 and then resuspended in 5 mL of HEPES-Tyrode buffer solution-Ca^2+ (−) pH 7.4. The cell suspension was mixed with 5 μL of 1M CaCl2 to give a final concentration of 1 mM CaCl2, and then incubated in a shaded state at room temperature for 5 minutes. The prepared Fura2-AM-loaded infected cells were dispensed into a 96 well plate in a volume of 100 μL/well, further subjected to the dispensation of HEPES-Tyrode buffer solution-C^2+ (+) pH 7.4 in a volume of 80 μL/well, and then assayed with a Fluorescence Drug Screening System (made by Hamamatsu Photonics Co.). Namely, [intensity of 500 nm fluorescent light due to 340 nm exciting light]/[intensity of 500 nm fluorescent light due to 380 nm exciting light] (reflecting the concentration of calcium in the cells) was assayed.

PAR-4 = target: T2, PAR-4 (Homo sapiens, UniProt Q96RI0); experiment: Calcium influx in PAR-4-expressing insect cells; assay type: cell-based; details: AST 2 units/ml; trypsin, thrombin 0.1 to 10 units/mL
T2 construct: expressed in transfected cells; host or cells: Sf9 insect cells infected with recombinant baculovirus VL-PAR (pVL1393)
T2 sequence (Q96RI0 18-385): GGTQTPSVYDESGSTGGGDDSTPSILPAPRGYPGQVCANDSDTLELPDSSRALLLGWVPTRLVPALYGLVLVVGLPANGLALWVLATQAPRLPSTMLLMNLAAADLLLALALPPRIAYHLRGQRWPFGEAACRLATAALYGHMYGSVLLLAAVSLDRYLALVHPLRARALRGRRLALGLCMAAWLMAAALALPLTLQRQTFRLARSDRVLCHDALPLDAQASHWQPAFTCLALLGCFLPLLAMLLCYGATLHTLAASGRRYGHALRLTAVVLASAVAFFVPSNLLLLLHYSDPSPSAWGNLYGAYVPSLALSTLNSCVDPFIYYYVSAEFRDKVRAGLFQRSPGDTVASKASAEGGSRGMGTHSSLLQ
Description: as §7
as §8, with “Namely, [intensity of 500 nm fluorescent light due to 340 nm exciting light]/[intensity of 500 nm fluorescent light due to 380 nm exciting light] (reflecting the concentration of calcium in the cells) was assayed.” left out

PAR-1 = target: T3, PAR-1 (Homo sapiens, UniProt P25116); experiment: Calcium influx in PAR-1-expressing insect cells; assay type: cell-based; details: AST 2 units/mL; trypsin, thrombin 0.1 to 10 units/mL; SFLLRNamide 10 to 100 μM
T3 construct: expressed in transfected cells; host or cells: Sf9 insect cells infected with recombinant baculovirus VL-PAR (pVL1393)
T3 sequence (P25116 22-425): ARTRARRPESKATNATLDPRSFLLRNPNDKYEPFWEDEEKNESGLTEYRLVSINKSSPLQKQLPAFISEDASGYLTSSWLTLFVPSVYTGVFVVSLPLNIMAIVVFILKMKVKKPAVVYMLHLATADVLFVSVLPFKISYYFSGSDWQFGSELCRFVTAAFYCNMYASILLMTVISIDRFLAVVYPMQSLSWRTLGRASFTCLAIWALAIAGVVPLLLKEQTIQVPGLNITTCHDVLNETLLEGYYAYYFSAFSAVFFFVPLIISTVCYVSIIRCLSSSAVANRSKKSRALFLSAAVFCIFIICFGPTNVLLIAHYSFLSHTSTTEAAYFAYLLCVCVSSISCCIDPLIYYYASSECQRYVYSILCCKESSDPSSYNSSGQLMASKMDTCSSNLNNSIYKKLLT

Molecule	HB-EGF expression intensity on the surfaces of the cell membranes (average fluorescence intensity) [1]	EGF expression intensity on the surfaces of the cell membranes (average fluorescence intensity) [2]	production of the mucus glycoprotein (NCI-H292 cells)	Ca2+ influx (PAR-2)	also measured
C=CC[C@H](C(=O)NO)[C@@H](CC(C)C)C(=O)N[C@@H](Cc1ccccc1)C(=O)NC [BB01, reference compound]	6.65	7.49	–	–	–
CC(=O)N[C@@H](CC(C)C)C(=O)N[C@@H](CC(C)C)C(=O)N[C@H](C=O)CCCNC(=N)N [leupeptin, reference compound]	7.3	10.18	–	–	–
HB-EGF: Heparin-binding EGF-like Growth Factor, EGFR ligand, produced by R & D Corp. [reference compound]	–	–	promoted	–	–
SLIGRL [agonist peptide for PAR-2]	–	–	–	observed	–
TGF-α: Transforming Growth Factor-α, EGFR ligand, produced by Peprotech Corp. [reference compound]	–	–	promoted	–	–
thrombin [reference compound]	–	–	–	observed	Ca2+ influx (PAR-4): observed; Ca2+ influx (PAR-1): observed
